Source: patent US11959929B2, “Method of quantifying lysergic acid diethylamide (LSD) and 2,3-dihydro-3-hydroxy-2-oxo lysergide (O-H-LSD) in human plasma” (Universitatsspital Basel, priority 2020, dated 2024)
“And” between values parts separate entries of the source, which are not always exact repeats. Identical values can stand only once.

Assay: Freeze/thaw stability tests in human plasma (three cycles, about −20° C.)
Assay type: physicochemical
Details: for Change in concentration [%]: 3 F/T cycles vs Baseline; for Accuracy: single QC replicate; for Change in plasma concentration following three freeze/thaw cycles: human plasma QC samples, −20° C., vs freshly processed QC
Text: Each analyte had to be stable in human plasma for at least three freeze-thaw cycles (for repeated sample preparations) and at ambient temperature for at least eight hours (maximal duration of sample preparation). Measured samples should be stable for a second injection when the first analytical run was not valid. The analytes had to be stable in the matrix at the intended storage temperatures and study duration.
An analyte was considered stable at one of the above tests when no increase or decrease of the analyte concentration of more than 15% for the mean of at least three analyzed QC samples at low, medium and at high concentration was observed.
Seven of each LLOQ, QCLOW, QCMID, QCHIGH, and ULOQ sample in human plasma were stored at about −20° C. for at least 24 hours and thawed unassisted at ambient temperature. When completely thawed, the samples were refrozen for at least 12 hours under the same conditions. The freeze-thaw cycle was repeated two more times. After the third cycle the samples were worked up and analyzed. The concentrations in the frozen and thawed samples were compared with freshly processed QC samples. Concentrations were calculated based on two freshly prepared CALs measured at the beginning and the other at the end of the validation run.

[1] = QCHIGH: 1000 pg/ml, 3 F/T cycles
[2] = ULOQ: 10000 pg/ml, 3 F/T cycles

| Structure (SMILES) | Accuracy, Intra-assay Mean (LLOQ: 10 pg/ml, 3 F/T cycles) [%] | Change in concentration [%] (LLOQ: 10 pg/ml) | Accuracy (LLOQ: 10 pg/ml, 3 F/T cycles) | Accuracy, Intra-assay Mean (LLOQ: 10 pg/ml, Baseline) [%] | Accuracy (LLOQ: 10 pg/ml, Baseline) | Accuracy, Intra-assay Mean [1] [%] | Change in concentration [%] (QCHIGH: 1000 pg/ml) | Accuracy [1] | Accuracy, Intra-assay Mean (QCHIGH: 1000 pg/ml, Baseline) [%] | Accuracy (QCHIGH: 1000 pg/ml, Baseline) | Accuracy, Intra-assay Mean (QCLOW: 25 pg/ml, 3 F/T cycles) [%] | Change in concentration [%] (QCLOW: 25 pg/ml) | Accuracy (QCLOW: 25 pg/ml, 3 F/T cycles) | Accuracy, Intra-assay Mean (QCLOW: 25 pg/ml, Baseline) [%] | Accuracy (QCLOW: 25 pg/ml, Baseline) | Accuracy, Intra-assay Mean (QCMID: 100 pg/ml, 3 F/T cycles) [%] | Change in concentration [%] (QCMID: 100 pg/ml) | Accuracy (QCMID: 100 pg/ml, 3 F/T cycles) | Accuracy, Intra-assay Mean (QCMID: 100 pg/ml, Baseline) [%] | Accuracy (QCMID: 100 pg/ml, Baseline) | also measured |
| --- | --- | --- | --- | --- | --- | --- | --- | --- | --- | --- | --- | --- | --- | --- | --- | --- | --- | --- | --- | --- | --- |
| CCN(CC)C(=O)[C@@H]1C=C2c3cccc4[nH]cc(c34)C[C@H]2N(C)C1 [LSD, Lysergic acid diethylamide] | 83.7 | −8.83 | 81.9% and 75.0* % and 81.7% and 84.7% and 79.8* % and 81.8% and 88.5% | 91.8 | 96.6% and 95.7% and 83.2% | 96.5 | 0.647 | 96.4% and 96.2% (2×) and 96.9% and 96.7% and 94.6% and 98.3% | 95.9 | 96.9% and 96.4% and 94.3% | 96.7 | 4.44 | 95.2% and 102% and 101% and 91.5% and 98.8% and 93.6% and 94.9% | 92.6 | 94% and 93.4% and 90.5% | 98.5 | 1.03 | 99.2% and 97.9% and 99.5% and 99.6% and 94.9% and 98% and 100% | 97.5 | 101% and 94.3% and 97.4% | Accuracy, Intra-assay Mean [2]: 95.7%; Change in concentration [%] (ULOQ: 10000 pg/ml): −0.9%; Accuracy [2]: 97.8% and 94.3% and 94% and 96.4% and 99.2% and 93% and 95.2%; Accuracy, Intra-assay Mean (ULOQ: 10000 pg/ml, Baseline): 96.6%; Accuracy (ULOQ: 10000 pg/ml, Baseline): 94.7% and 94.9% and 100%; Change in plasma concentration following three freeze/thaw cycles: ≤ 8.83% |
| CCN(CC)C(=O)C1C=C2c3cccc4c3C(O)(C[C@H]2N(C)C1)C(=O)N4 (some centres unmarked) [O-H-LSD, 2,3-dihydro-3-hydroxy-2-oxo lysergide] | 97 | 6.46 | 95.9% and 97.1% and 81.7% and 95.2% and 108% and 104% and 73.9* % | 91.1 | 95% and 88.9% and 89.4% | 96.7 | 0.123 | 95% and 93.1% and 97.5% and 96.2% and 99.5% and 97.7% and 98.1% | 96.6 | 97.7% and 96.2% and 95.9% | 96.9 | 1.57 | 109% and 96.6% and 91.4% and 101% and 97.5% and 89.3% and 92.9% | 95.3 | 94.7% and 91.5% and 99.8% | 98.7 | 3.7 | 95.4% and 102% (2×) and 98.9% and 100% and 94.8% and 97.3% | 95.2 | 95.7% and 98.6% and 91.4% | Found at, Intra-assay Mean (LLOQ: 10 pg/ml, 3 F/T cycles): 9.7 pg/mL; Found at, Intra-assay Mean (LLOQ: 10 pg/ml, Baseline): 9.11 pg/mL; Found at, Intra-assay Mean [1]: 967 pg/mL; Found at, Intra-assay Mean (QCHIGH: 1000 pg/ml, Baseline): 966 pg/mL; Found at, Intra-assay Mean (QCLOW: 25 pg/ml, 3 F/T cycles): 24.2 pg/mL; Found at, Intra-assay Mean (QCLOW: 25 pg/ml, Baseline): 23.8 pg/mL; Found at, Intra-assay Mean (QCMID: 100 pg/ml, 3 F/T cycles): 98.7 pg/mL; Found at, Intra-assay Mean (QCMID: 100 pg/ml, Baseline): 95.2 pg/mL; Accuracy, Intra-assay Mean [2]: 94.9%; Found at, Intra-assay Mean [2]: 9490 pg/mL; Change in concentration [%] (ULOQ: 10000 pg/ml): −0.589%; Accuracy [2]: 92.9% and 92.6% and 96.2% and 96% and 94.8% and 94.4% and 97.2%; Accuracy, Intra-assay Mean (ULOQ: 10000 pg/ml, Baseline): 95.4%; Found at, Intra-assay Mean (ULOQ: 10000 pg/ml, Baseline): 9540 pg/mL; Accuracy (ULOQ: 10000 pg/ml, Baseline): 94.2% and 92.3% and 99.7%; Change in plasma concentration following three freeze/thaw cycles: ≤ 6.46% |
